Columns and labels:
[1] = test system: IL-13 induced pSTAT6 in lung tissue; assay: Murine model of IL-13 induced pSTAT6 induction in lung tissue; type: in vivo; conditions: mouse lung, oral aspiration 1 mg/mL 50 μL, IL-13 challenge 4 h post dose, pSTAT6 at 5 hours
Method: IL-13 is an important cytokine underlying the pathophysiology of asthma (Kudlacz et al. Eur. J. Pharmacol, 2008, 582, 154-161). IL-13 binds to cell surface receptors activating members of the Janus family of kinases (JAK) which then phosphorylate STAT6 and subsequently activates further transcription pathways. In the described model, a dose of IL-13 was delivered locally into the lungs of mice to induce the phosphorylation of STAT6 (pSTAT6) which is then measured as the endpoint.
Adult balb/c mice from Harlan were used in the assay. On the day of study, animals were lightly anesthetized with isoflurane and administered either vehicle or test compound (1 mg/mL, 50 μL total volume over several breaths) via oral aspiration. Animals were placed in lateral recumbency post dose and monitored for full recovery from anesthesia before being returned to their home cage. Four hours later, animals were once again briefly anesthetized and challenged with either vehicle or IL-13 (0.03 μg total dose delivered, 50 μL total volume) via oral aspiration before being monitored for recovery from anesthesia and returned to their home cage. One hour after vehicle or IL-13 administration, lungs were collected for both pSTAT6 detection using an anti-pSTAT6 ELISA (rabbit mAb capture/coating antibody; mouse mAb detection/report antibody: anti-pSTAT6-pY641; secondary antibody: anti-mouse IgG-HRP) and analyzed for total drug concentration as described above in Assay 3.
Selected compounds of the invention were tested in the assay. Activity in the model is evidenced by a decrease in the level of pSTAT6 present in the lungs of treated animals at 5 hours compared to the vehicle treated, IL-13 challenged control animals. The difference between the control animals which were vehicle-treated, IL-13 challenged and the control animals which were vehicle-treated, vehicle challenged dictated the 0% and 100% inhibitory effect, respectively, in any given experiment.

[2] = test system: IL-2/anti-CD3 stimulated STAT5 phosphorylation in CD4+ T cells; assay: Inhibition of IL-2 stimulated pSTAT5 in CD4+ T cells; type: cell-based; conditions: CD4+ T cells in human PBMCs; read-out: pIC50 inhibition of IL-2 stimulated pSTAT5 (converted)
Method: The potency of the test compound for inhibition of interleukin-2 (IL-2)/anti-CD3 stimulated STATS phosphorylation was measured in CD4-positive (CD4+) T cells in human peripheral blood mononuclear cells (PBMCs) isolated from human whole blood (Stanford Blood Center) using flow cytometry. Because IL-2 signals through JAK, this assay provides a measure of JAK cellular potency.
CD4+ T cells were identified using a […] (PE) conjugated anti-CD4 antibody (Clone RPA-T4, BD Biosciences), while an Alexa Fluor 647 conjugated anti-pSTAT5 antibody (pY694, Clone 47, BD Biosciences) was used to detect STATS phosphorylation.
(1) The protocol of Assay 7 paragraph (1) was followed with the exception that the cytokine stimulation with anti-CD3 was performed for 30 min instead of 24 h.
(2) After cytokine stimulation, cells were fixed with pre warmed fix solution (200 μL; BD Biosciences) for 10 min at 37° C., 5% CO2, washed twice with DPBS buffer (1 mL, Life Technologies), and resuspended in ice cold Perm Buffer III (1000 μL, BD Biosciences) for 30 min at 4° C. Cells were washed twice with 2% FBS in DPBS (FACS buffer), and then resuspended in FACS buffer (100 μL) containing anti-CD4 PE (1:50 dilution) and anti-CD3 […] (1:5 dilution) for 60 min at room temperature in the dark. After incubation, cells were washed twice in FACS buffer before being analyzed using a LSRII flow cytometer (BD Biosciences). To determine the inhibitory potency of test compounds in response to IL-2/anti-CD3, the median fluorescent intensity (MFI) of pSTAT5 was measured in CD4+ T cells. IC50 values were determined from analysis of the inhibition curves of MFI vs compound concentration. Data are expressed as pIC50 (negative decadic logarithm IC50) values.

[3] = target: JAK3 (Homo sapiens (Human), UniProt P52333); assay: Biochemical JAK kinase assay (LanthaScreen), JAK3
Method: (§1) A panel of four LanthaScreen JAK biochemical assays (JAK1, 2, 3 and Tyk2) were carried in a common kinase reaction buffer (50 mM HEPES, pH 7.5, 0.01% Brij-35, 10 mM MgCl2, and 1 mM EGTA). Recombinant GST-tagged JAK enzymes and a GFP-tagged STAT1 peptide substrate were obtained from Life Technologies.
(§2) Serially diluted compounds were pre-incubated with each of the four JAK enzymes and the substrate in white 384-well microplates (Corning) at ambient temperature for 1 h. ATP was subsequently added to initiate the kinase reactions in 10 μL total volume, with 1% DMSO. […] The plates were allowed to incubate at ambient temperature for 1 h before being read on the EnVision reader (Perkin Elmer).
(§3) For dose-response analysis, percent inhibition data were plotted vs. compound concentrations, and IC50 values were determined from a 4-parameter robust fit model with the Prism software (GraphPad Software). Results were expressed as pIC50 (negative logarithm of IC50) and subsequently converted to pKi (negative logarithm of dissociation constant, Ki) using the Cheng-Prusoff equation.

[4] = target: JAK2 (Homo sapiens (Human), UniProt O60674); assay: Biochemical JAK kinase assay (LanthaScreen), JAK2
Method: as §1, §2, §3

[5] = target: JAK1 (Homo sapiens (Human), UniProt P23458); assay: Biochemical JAK kinase assay (LanthaScreen), JAK1
Method: as §1, §2, §3

Sequence of JAK2 (O60674 whole entry): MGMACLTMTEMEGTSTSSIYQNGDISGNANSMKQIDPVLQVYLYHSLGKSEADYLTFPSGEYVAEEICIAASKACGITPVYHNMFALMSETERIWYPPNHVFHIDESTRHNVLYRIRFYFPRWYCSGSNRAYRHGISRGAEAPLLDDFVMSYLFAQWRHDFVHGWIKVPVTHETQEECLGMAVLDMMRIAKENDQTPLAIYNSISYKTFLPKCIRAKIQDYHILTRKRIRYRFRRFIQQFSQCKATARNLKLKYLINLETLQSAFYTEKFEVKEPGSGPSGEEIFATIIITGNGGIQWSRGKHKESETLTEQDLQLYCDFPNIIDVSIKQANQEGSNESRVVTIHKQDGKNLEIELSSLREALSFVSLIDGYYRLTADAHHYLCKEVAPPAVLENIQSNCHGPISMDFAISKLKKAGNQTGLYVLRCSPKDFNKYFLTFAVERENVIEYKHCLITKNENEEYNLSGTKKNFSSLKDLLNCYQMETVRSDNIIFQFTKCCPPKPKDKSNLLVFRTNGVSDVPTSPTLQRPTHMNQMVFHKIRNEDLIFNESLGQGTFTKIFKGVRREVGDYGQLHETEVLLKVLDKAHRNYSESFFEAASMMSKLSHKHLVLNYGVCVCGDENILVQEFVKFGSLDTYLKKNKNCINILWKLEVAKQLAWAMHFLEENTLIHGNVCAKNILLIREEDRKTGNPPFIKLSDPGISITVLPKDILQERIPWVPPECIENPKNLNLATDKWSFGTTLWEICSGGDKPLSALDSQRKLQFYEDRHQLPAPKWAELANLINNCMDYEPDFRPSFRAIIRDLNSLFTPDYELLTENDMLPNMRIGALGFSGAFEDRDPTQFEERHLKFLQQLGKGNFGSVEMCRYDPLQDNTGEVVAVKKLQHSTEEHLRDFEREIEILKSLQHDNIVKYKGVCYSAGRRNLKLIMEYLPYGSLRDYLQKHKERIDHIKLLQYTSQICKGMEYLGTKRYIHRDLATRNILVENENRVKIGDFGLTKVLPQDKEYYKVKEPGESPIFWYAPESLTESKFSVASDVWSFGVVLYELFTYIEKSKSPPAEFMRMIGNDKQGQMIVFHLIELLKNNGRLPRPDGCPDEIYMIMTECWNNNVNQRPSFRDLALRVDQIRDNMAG
Sequence of JAK3 (P52333 whole entry): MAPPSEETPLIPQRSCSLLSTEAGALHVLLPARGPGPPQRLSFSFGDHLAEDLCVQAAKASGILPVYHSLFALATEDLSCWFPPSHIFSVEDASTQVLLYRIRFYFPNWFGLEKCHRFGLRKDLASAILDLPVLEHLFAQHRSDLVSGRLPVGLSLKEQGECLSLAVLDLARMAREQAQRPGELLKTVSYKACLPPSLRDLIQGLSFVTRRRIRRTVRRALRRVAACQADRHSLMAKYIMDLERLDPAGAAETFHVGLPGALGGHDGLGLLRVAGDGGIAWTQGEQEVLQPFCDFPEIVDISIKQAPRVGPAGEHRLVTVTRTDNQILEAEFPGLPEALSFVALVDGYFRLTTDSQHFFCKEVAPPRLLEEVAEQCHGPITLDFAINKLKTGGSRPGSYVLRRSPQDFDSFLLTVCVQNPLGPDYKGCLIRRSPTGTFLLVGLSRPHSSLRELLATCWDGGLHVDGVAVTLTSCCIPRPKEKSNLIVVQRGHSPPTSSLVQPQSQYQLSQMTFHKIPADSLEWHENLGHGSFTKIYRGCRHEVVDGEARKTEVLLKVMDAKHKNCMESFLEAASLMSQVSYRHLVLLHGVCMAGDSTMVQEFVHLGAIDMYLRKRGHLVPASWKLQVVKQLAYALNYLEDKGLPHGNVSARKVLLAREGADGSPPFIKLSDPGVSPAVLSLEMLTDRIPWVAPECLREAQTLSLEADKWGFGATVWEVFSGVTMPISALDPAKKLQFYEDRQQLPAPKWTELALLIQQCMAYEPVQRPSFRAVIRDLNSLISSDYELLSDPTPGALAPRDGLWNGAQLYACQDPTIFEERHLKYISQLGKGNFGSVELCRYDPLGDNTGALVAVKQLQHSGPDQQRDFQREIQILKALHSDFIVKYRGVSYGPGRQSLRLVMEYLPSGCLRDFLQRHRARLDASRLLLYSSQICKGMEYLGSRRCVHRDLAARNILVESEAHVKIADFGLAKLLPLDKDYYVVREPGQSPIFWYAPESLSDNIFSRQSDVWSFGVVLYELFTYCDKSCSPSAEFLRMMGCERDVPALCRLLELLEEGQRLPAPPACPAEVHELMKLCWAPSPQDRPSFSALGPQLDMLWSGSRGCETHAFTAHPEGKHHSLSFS
Sequence of JAK1 (P23458 whole entry): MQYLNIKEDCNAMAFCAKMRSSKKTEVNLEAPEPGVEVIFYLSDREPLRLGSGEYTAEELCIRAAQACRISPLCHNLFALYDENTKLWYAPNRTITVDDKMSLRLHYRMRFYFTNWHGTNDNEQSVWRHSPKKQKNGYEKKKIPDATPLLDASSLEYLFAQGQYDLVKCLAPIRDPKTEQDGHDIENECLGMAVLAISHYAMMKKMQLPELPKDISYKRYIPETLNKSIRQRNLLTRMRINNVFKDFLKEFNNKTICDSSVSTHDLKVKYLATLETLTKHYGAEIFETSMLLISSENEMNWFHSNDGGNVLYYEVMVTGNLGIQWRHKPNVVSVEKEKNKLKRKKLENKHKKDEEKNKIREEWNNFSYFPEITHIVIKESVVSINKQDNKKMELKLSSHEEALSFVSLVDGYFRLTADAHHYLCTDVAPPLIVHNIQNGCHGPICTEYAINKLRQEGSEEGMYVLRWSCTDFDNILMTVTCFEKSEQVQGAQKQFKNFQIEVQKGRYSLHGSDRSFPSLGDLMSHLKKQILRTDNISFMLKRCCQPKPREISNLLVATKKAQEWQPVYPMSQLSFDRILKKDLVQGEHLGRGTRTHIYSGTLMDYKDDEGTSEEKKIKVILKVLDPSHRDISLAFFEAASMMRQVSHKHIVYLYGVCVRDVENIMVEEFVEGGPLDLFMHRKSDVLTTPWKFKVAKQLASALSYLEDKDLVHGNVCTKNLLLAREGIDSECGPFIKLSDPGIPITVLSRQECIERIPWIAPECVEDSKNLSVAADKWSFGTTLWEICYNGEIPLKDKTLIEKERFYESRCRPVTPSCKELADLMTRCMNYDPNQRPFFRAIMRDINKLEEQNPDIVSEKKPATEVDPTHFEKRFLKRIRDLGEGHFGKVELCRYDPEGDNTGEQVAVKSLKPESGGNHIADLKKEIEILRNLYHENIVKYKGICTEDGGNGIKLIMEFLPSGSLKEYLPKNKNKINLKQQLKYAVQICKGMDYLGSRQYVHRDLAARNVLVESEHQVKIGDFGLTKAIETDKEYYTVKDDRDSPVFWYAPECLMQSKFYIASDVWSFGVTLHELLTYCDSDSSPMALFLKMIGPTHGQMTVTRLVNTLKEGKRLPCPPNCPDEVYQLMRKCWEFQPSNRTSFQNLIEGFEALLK

Structure (SMILES) | pSTAT6 inhibition Assay 4 [1] | IC50 [2] [nM] | Ki [3] [nM] | Ki [4] [nM] | Ki [5] [nM]
CCCN1Cc2[nH]c(-c3n[nH]c4cc(-c5cc(F)c(O)cc5CC)ccc34)nc2C[C@H]1C(=O)N1C[C@@H]2C[C@H]1CN2C [Example 1, ((S)-2-(6-(2-ethyl-5-fluoro-4-hydroxyphenyl)-1H-indazol-3-yl)-5-propyl-4,5,6,7-tetrahydro-3H-imidazo[4,5-c]pyridin-6-yl)((1S,4S)-5-methyl-2,5-diazabicyclo-[2.2.1]heptan-2-yl)methanone] | A (A represents between 60% and 80% inhibition) | ~50.1 | 0.08 | 0.02 | 0.05
CCc1cc(O)c(F)cc1-c1ccc2c(-c3nc4c([nH]3)CN(C(C)C)[C@H](C(=O)N3CC[C@H](N(C)C)C3)C4)n[nH]c2c1 [Example 3] | B (B represents between 40% and 60% inhibition) | ~20 | 0.1 | 0.02 | 0.06
CCc1cc(O)c(F)cc1-c1ccc2c(-c3nc4c([nH]3)CN(CC)[C@@H](C(=O)N3CCN(C(C)(C)C)CC3)C4)n[nH]c2c1 [Example 1-37] | C (C represents between 25% and 40% inhibition) | ~7.94 | 0.5 | 0.04 | 0.1
